{"source": "patent US20030022889A1", "about": "“Method for providing neuro-protective effects” (priority 1997, published 2003)", "key": {"[1]": {"tested_on": "formation of lipid peroxides", "assay": "Lipid Peroxidation Test", "details": "test protocol of Aruoma, et al. (1990)"}, "[2]": {"tested_on": "muscarinic cholinergic receptor", "assay": "pharmacological studies, muscarinic cholinergic receptor activity"}, "[3]": {"tested_on": "ischemia-induced neuronal cell damage (CA1 pyramidal cell layer of the hippocampus)", "assay": "Cerebral Ischemia Model in Rats", "assay_type": "in vivo, Male Wistar rats", "details": "\"such experiments\"; the sentence does not name a specific test", "description": "Cerebral ischemia is produced in rats by occluding the four arteries that supply blood to the brain according to the following procedure. Male Wistar rats are anesthetized with Metofane and placed into a stereotaxic instrument. A longitudinal incision is made on the dorsal surface of the neck. The neck muscles are reflected to expose the dorsal surface of the spinal column. The two vertebral arteries are exposed where they pass through the first cervical vertebra. Both arteries are permanently occluded by the application of electrocautery. After coagulation of the vertebral arteries, the rat is removed from the stereotaxic instrument and the surgical wound is sutured. Two longitudinal incisions are then made on the ventral surface of the neck. The two common carotid arteries are exposed and dissected free from surrounding nerves and connective tissue. An atraumatic clasp, fabricated mainly from silicone rubber tubing, is placed around each carotid artery in a manner such that the vessel is not traumatized or occluded. An indwelling jugular cannula is implanted into each rat for drug delivery. The surgical wounds are then closed. […]\nDamage in 4 sections of the dorsal hippocampus from each brain is assessed in order to obtain an accurate estimate of damage. An average damage score is calculated for each treatment group. […] The level of significance is determined using the Mann Whitney-U-test."}, "5-HT1C receptor": {"molecular_target": "T1, 5-HT1C receptor (Homo sapiens, UniProt P28335)", "T1 sequence (P28335 33-458)": "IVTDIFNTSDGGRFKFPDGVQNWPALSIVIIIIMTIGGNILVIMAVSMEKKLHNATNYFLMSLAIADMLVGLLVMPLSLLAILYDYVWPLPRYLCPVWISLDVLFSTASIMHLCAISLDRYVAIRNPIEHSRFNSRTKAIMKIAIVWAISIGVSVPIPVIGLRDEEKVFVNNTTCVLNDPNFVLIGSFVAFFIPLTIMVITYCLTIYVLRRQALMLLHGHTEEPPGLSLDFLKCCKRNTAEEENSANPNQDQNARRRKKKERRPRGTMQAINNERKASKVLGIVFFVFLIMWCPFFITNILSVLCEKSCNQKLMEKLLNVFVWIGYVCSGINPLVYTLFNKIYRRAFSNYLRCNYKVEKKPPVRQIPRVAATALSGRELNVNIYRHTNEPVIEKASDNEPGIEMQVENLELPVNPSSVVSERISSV", "assay": "pharmacological studies, 5-HT1C receptor activity"}}, "data": [{"smiles": "Cc1cc2c(s1)Nc1ccccc1N=C2N1CCN(C)CC1", "note": "[olanzapine, 2-methyl-4-(4-methyl-1-piperazinyl)-10H-thieno[2,3-b] [1,5] benzodiazepine]", "values": [{"measurement": "inhibition of the formation of lipid peroxides", "setting": "[1]", "result": "inhibit the formation of lipid peroxides"}, {"measurement": "muscarinic cholinergic receptor activity", "setting": "[2]", "result": "has muscarinic cholinergic receptor activity"}, {"measurement": "neuro-protective effect", "setting": "[3]", "result": "significant neuro-protective effect"}, {"measurement": "activity at the 5-HT1C receptor", "setting": "5-HT1C receptor", "result": "active"}]}]}
